{"source": "paper PMC7946679", "about": "“Selective cytotoxicity of epidithiodiketopiperazine DC1149B, produced by marine-derived Trichoderma lixii on the cancer cells adapted to glucose starvation” (Journal of Natural Medicines, 2019)", "key": {"[1]": {"system": "human pancreatic carcinoma PANC-1 cells", "assay": "Cytotoxicity (WST-8) against PANC-1 cells in Glucose Deficient or General Glucose Medium", "assay_type": "cell-based", "settings": "for IC50: Homo sapiens; for IC50 / IC50 Glucose (−): PANC-1 cells, 12 h with sample, WST-8; for S.I. (Selective index): IC50 General Glucose Medium versus IC50 Glucose Deficient Medium, PANC-1", "description": "Human pancreatic carcinoma cell line PANC-1 was maintained in the DMEM supplemented with heat-inactivated 10% FBS and kanamycin (50 µg/ml) in a humidified atmosphere with 5% CO2 at 37 °C. To induce nutrient starvation, PANC-1 cells were cultured in the Glucose Deficient Medium [Basal Medium (25 mM HEPES buffer (pH 7.4) supplemented with 6.4 g/l NaCl, 700 mg/l NaHCO3, 400 mg/l KCl, 265 mg/l CaCl2·2H2O, 200 mg/l MgSO4·7H2O, 125 mg/l NaH2PO4, 0.1 mg/l Fe(NO3)·9H2O, 15 mg/l Phenol red, 10 mL/l MEM vitamin solution (X100) (GIBCO, Carlsbad, CA), 200 mmol/l L-glutamine solution (GIBCO, Carlsbad, CA), and 25 mg/l kanamycin) containing 10% dialyzed FBS]. The General Glucose Medium [Basal Medium supplemented with 10% FBS and […] glucose (final 25 mM)] was also used for control cells.\nThe bioassay was carried out according to a method described previously. Briefly, PANC-1 cells (1 × 10^4 cells/100 µl in 96 well plastic plate) were pre-incubated in the DMEM supplemented with 10% FBS for 24 h. The medium was then replaced with either the General Glucose Medium or Glucose Deficient Medium to induce cells adaption to the nutrient starvation. After 12-h incubation, the serially diluted samples were added, and the cells were incubated for an additional 12 h in a humidified atmosphere with 5% CO2 at 37 °C. The cell proliferation was detected using the WST-8 colorimetric reagent. The IC50 value was determined by linear interpolation from the growth inhibition curve. We assessed the selectivity of the cytotoxic activity (Selective Index, S.I.) based on the difference in the IC50 values obtained for experiments with General Glucose Media and Glucose Deficient Media."}, "PANC-1 cells": {"system": "PANC-1 cells", "assay": "Oxygen consumption rate of PANC-1 cells (OCR Assay Kit)", "assay_type": "cell-based, human", "settings": "PANC-1 cells in General Glucose Medium, phosphorescent probe, 180 min", "description": "Oxygen consumption rate of PANC-1 cells was assayed using OCR Assay Kit (Cayman Chemical, Ann Arbor, MI, USA) as per the manufacturer’s instructions. Briefly, pre-cultured PANC-1 cells (8.0 × 10^4 cells) in the black, clear bottom 96-well plate (Corning Incorporated, NY, USA) were incubated with General Glucose Medium for 18 h at 37 °C. The cells were replenished with 140 µl of fresh medium, and the test compound was added. This was followed by adding the phosphorescent probe to measure the oxygen consumption. 100 µl of mineral oil was added in each well to restrict oxygen diffusion. The signals were measured by an Infinite M1000 microplate reader (Tecan Group Ltd., Mannedorf, Switzerland) using time-resolved mode at Ex 380 nm and Em 650 nm for 180 min with 1-min time interval. The linear regression was applied after subtracting the blank, and the oxygen consumption rate was indicated by the slope of each signal profile."}, "mitochondrial Complex II": {"biological_target": "T1, mitochondrial Complex II (Bos taurus, UniProt P31039+P35720+Q3T189+Q95123)", "T1 construct": "purchased Cayman Chemical", "T1 sequence (P31039 44-665)": "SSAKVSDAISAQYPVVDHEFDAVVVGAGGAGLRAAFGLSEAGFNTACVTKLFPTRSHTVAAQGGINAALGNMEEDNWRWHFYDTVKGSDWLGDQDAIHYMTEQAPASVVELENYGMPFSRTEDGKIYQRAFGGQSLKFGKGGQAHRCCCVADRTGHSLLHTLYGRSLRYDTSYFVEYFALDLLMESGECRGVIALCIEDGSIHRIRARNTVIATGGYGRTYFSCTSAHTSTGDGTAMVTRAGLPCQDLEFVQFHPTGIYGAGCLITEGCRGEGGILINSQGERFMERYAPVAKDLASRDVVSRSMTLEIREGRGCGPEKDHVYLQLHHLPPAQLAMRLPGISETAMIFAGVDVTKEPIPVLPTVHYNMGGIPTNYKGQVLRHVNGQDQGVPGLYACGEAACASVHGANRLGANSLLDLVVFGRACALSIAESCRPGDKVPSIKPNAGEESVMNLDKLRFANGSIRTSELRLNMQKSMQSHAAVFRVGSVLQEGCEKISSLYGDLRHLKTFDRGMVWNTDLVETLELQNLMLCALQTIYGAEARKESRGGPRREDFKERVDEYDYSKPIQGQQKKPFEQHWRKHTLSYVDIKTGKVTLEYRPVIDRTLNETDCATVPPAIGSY", "T1 sequence (Q3T189 29-280)": "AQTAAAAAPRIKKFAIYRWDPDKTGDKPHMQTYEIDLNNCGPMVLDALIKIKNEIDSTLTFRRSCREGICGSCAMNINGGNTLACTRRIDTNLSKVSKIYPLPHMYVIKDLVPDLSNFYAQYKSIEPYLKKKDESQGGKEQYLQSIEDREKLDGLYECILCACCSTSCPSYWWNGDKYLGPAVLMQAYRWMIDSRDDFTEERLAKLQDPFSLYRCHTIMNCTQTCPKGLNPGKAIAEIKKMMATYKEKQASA", "T1 sequence (P35720 30-169)": "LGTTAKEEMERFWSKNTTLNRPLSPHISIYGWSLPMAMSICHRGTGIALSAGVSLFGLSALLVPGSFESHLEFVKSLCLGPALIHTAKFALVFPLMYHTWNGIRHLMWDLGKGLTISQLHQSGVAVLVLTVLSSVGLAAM", "T1 sequence (Q95123 56-158)": "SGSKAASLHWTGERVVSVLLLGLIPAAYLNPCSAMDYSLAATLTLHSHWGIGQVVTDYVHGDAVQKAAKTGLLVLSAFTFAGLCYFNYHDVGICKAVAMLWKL", "assay": "Mito Check Complex Activity Assay Kit, complex II", "assay_type": "biochemical", "settings": "mitochondrial electron transport chain", "text": "(§1) Dulbecco’s Modified Eagle’s medium (DMEM), WST-8 colorimetric reagent, and KCN were purchased from Nacalai Tesque, Inc. (Kyoto, Japan). Fetal bovine serum (FBS) and Dialyzed FBS were purchased from Equitech-Bio Inc. (Kerrville, TX, USA) and Thermo Fisher Scientific Inc. (Waltham, MA, USA), respectively. Anti-Akt, Anti-phosphorylated Akt, anti-GRP78, and anti-β-actin antibodies were obtained from Cell Signaling Technology, Inc. (Danvers, MA, USA). Horseradish peroxidase (HRP)-linked anti-rabbit IgG antibody (GE Healthcare Life Sciences, Buckinghamshire, UK) was used as secondary antibody. Mito Check Complex Activity Assay Kit (Cayman Chemical, Ann Arbor, MI, USA) was used to evaluate the effect of compound 1 on the mitochondrial complex I–V. Oxygen consumption of cells was measured by Oxygen Consumption Rate (OCR) Assay Kit (Cayman Chemical, Ann Arbor, MI, USA). Rotenone, thenoyltrifluoroacetone (TTFA), carbonyl cyanide m-chlorophenylhydrazone (CCCP), antimycin A, and oligomycin A were obtained from Tokyo Chemical Industry Co., LTD. […]\n(§2) Antimycin A is a known inhibitor of complex III in the mitochondrial electron transport chain [17]. […] We also evaluated the effect of compound 1 on the oxygen consumption of PANC-1 cells cultured in the Glucose Deficient Medium."}, "[2]": {"system": "human leukemic Jurkat cell line", "settings": "read-out: IC50 cytotoxicity Jurkat; cited from earlier work"}, "[3]": {"system": "Akt and phosphorylated Akt", "assay": "Western blotting, Akt signaling in PANC-1 cells", "assay_type": "cell-based, human", "settings": "PANC-1 in Glucose Deficient Medium, 0.02–0.3 µM, 12 h, western blot", "description": "(§3) PANC-1 cells (3 × 10^5 cells/2 ml in 6-well plastic plate) were pre-incubated in the DMEM supplement with 10% FBS for 24 h. The medium was then replaced with either General Glucose or Glucose Deficient Medium. […] Subsequently, the cells were rinsed with ice-cold PBS and lysed in the lysis buffer [50 mM Tris–HCl (pH 8.0) containing 150 mM NaCl, 5 mM EDTA, 1% glycerol, 1% NP-40, 1% protease inhibitor cocktail, and 1% phosphatase inhibitor cocktail]. The cell lysate was analyzed by SDS-PAGE and transferred onto PVDF membranes (GE Healthcare Life Sciences Buckinghamshire, UK). The membranes were then incubated with appropriate primary antibodies followed by HRP-conjugated secondary antibodies, and the immunopositive bands were visualized using an ECL kit (GE Healthcare Life Sciences). The luminescent signals were analyzed using an Image Quant LAS4010 Scanner (GE Healthcare Life Sciences)."}, "mitochondrial Complex V": {"biological_target": "mitochondrial Complex V (Bos taurus, UniProt P00829+P00847+P19483+P32876)", "assay": "Mito Check Complex Activity Assay Kit, complex V", "assay_type": "biochemical", "settings": "mitochondrial electron transport chain", "text": "as §1, §2"}, "[4]": {"system": "rat adrenal pheochromocytoma cell line PC12", "settings": "PC12 cells, cited from earlier work"}, "[5]": {"system": "human cervix epithelioid carcinoma HeLa cells", "settings": "cited from earlier work"}, "GRP78": {"system": "GRP78", "assay": "Western blotting, induction of GRP78 in PANC-1 cells", "assay_type": "cell-based, human", "settings": "PANC-1 in Glucose Deficient Medium, lowest test concentration 0.02 µM, 12 h, western blot", "description": "as §3"}, "mitochondrial Complex IV": {"biological_target": "mitochondrial Complex IV (Bos taurus, UniProt P00396+P68530)", "assay": "Mito Check Complex Activity Assay Kit, complex IV", "assay_type": "biochemical", "settings": "mitochondrial electron transport chain", "text": "as §1, §2"}, "[6]": {"biological_target": "mitochondrial Complex II/III (Bos taurus, UniProt P00125+P00157+P13272)", "assay": "Mito Check Complex Activity Assay Kit, complex II/III", "assay_type": "biochemical", "settings": "mitochondrial electron transport chain", "text": "as §1, §2"}, "mitochondrial Complex I": {"biological_target": "mitochondrial Complex I (Bos taurus, UniProt P03887+P17694+P42026)", "assay": "biochemical", "settings": "mitochondrial electron transport chain"}}, "data": [{"smiles": "COc1ccc2cc(NC(=O)C34CC5(O)C(C=CC(O)C5ON3)S4)c(=O)oc2c1OC", "note": "(stereo not drawn) [Compound 3, aspergillazine A]", "values": [{"measurement": "IC50", "setting": "[1]; General Glucose Medium", "value": "> 1000", "unit": "µM"}, {"measurement": "IC50", "setting": "[1]; Glucose Deficient Medium", "value": "> 1000", "unit": "µM"}, {"measurement": "IC50 Glucose (−)", "setting": "[1]; Glucose Deficient Medium", "value": "very weak"}]}, {"smiles": "N#CC(C#N)=NNc1cccc(Cl)c1", "note": "[CCCP, carbonyl cyanide m-chlorophenylhydrazone]", "values": [{"measurement": "oxygen consumption of PANC-1 cells", "setting": "PANC-1 cells", "value": "showed the opposite effect to antimycin A"}]}, {"smiles": "CCCCCC[C@H]1C(=O)O[C@H](C)[C@H](NC(=O)c2cccc(NC=O)c2O)C(=O)O[C@@H](C)[C@@H]1OC(=O)CC(C)C", "note": "[Antimycin A, reference compound]", "values": [{"measurement": "oxygen consumption of PANC-1 cells", "setting": "PANC-1 cells", "value": "inhibited the oxygen consumption"}, {"measurement": "IC50", "setting": "[1]; Glucose Deficient Medium", "value": 0.0003, "unit": "µM"}, {"measurement": "S.I. (Selective index)", "setting": "[1]", "value": "960,000"}]}, {"smiles": "O=C(CC(=O)C(F)(F)F)c1cccs1", "note": "[thenoyltrifluoroacetone, reference compound]", "values": [{"measurement": "IC50", "setting": "mitochondrial Complex II", "value": 65, "unit": "µM"}]}, {"smiles": "COc1ccc2cc(NC(=O)C3=NO[C@H]4[C@H](O)C=C[C@@H](O)[C@@]4(O)C3)c(=O)oc2c1OC", "note": "[Compound 2, trichodermamide A]", "values": [{"measurement": "IC50", "setting": "[1]; General Glucose Medium", "value": "> 1000", "unit": "µM"}, {"measurement": "IC50", "setting": "[1]; Glucose Deficient Medium", "value": 270, "unit": "µM"}, {"measurement": "S.I. (Selective index)", "setting": "[1]", "value": "> 3.7"}, {"measurement": "IC50 Glucose (−)", "setting": "[1]; Glucose Deficient Medium", "value": "very weak"}]}, {"smiles": "COc1ccc(C2SSC34CC5(O)C(Cl)C=CC(O)C5ON3C(=O)C2NC4=O)c(O)c1OC", "note": "(stereo not drawn) [Compound 1, DC1149B]", "values": [{"measurement": "IC50", "setting": "[2]", "value": 5.1, "unit": "µM"}, {"measurement": "levels of Akt and phosphorylated Akt", "setting": "[3]", "value": "reduced the levels of Akt and phosphorylated Akt in the nutrient-starved cells in a dose-dependent manner"}, {"measurement": "IC50", "setting": "mitochondrial Complex V", "value": "> 30", "unit": "µM"}, {"measurement": "oxygen consumption of PANC-1 cells", "setting": "PANC-1 cells", "value": "inhibited the oxygen consumption"}, {"measurement": "IC50", "setting": "[1]; General Glucose Medium", "value": 710, "unit": "µM"}, {"measurement": "IC50", "setting": "[1]; Glucose Deficient Medium", "value": 0.02, "unit": "µM"}, {"measurement": "IC50 cytotoxic activity PC12", "setting": "[4]", "value": 21.9, "unit": "µg/mL"}, {"measurement": "IC50", "setting": "[4]; read-out: IC50 cytotoxic activity PC12", "value": 42.4, "unit": "µM"}, {"measurement": "IC50 cytotoxic activity HeLa", "setting": "[5]", "value": 50.1, "unit": "µg/mL"}, {"measurement": "IC50", "setting": "[5]; read-out: IC50 cytotoxic activity HeLa", "value": 97.1, "unit": "µM"}, {"measurement": "expression of GRP78", "setting": "GRP78", "value": "decreased the expression of GRP78 in the nutrient-starved cells to the basal level"}, {"measurement": "IC50", "setting": "mitochondrial Complex IV", "value": "> 30", "unit": "µM"}, {"measurement": "IC50", "setting": "mitochondrial Complex II", "value": 19, "unit": "µM"}, {"measurement": "IC50", "setting": "[6]", "value": "> 30", "unit": "µM"}, {"measurement": "IC50", "setting": "mitochondrial Complex I", "value": "> 30", "unit": "µM"}]}]}
